Tests used:
[1] = tested on: S. aureus MRSA (ATCC BAA-1556); assay: Killing curve (CFU counting); type: cell-based, Staphylococcus aureus; conditions: Triafluocyl 20 μg/ml
Method: S. aureus MRSA (ATCC BAA-1556) was grown overnight in brain heart infusion (BHI) medium, diluted 1:100 in fresh BHI, and incubated aerobically at 37° C. until bacteria growth reached a logarithmic phase (OD600=0.25-0.3).
Triafluocyl (Cayman Chemical, Item No. 15425) (20 μg/ml), Vancomycin (Sigma, 4 μg/ml or 10 μg/ml), Minocycline (Sigma, 8 μg/ml) or a solvent (DMSO) were added to 5 ml of S. aureus MRSA suspensions.
Bacterial growth for S. aureus MRSA was measured after different time intervals by counting the colony-forming units after plating appropriate culture dilutions on BHI agar plates.
S. aureus MRSA (ATCC BAA-1556) was grown overnight in BHI medium, then a 1:100 inoculum was diluted in fresh BHI and incubated aerobically at 37° C. until bacteria growth reached a logarithmic phase (OD600=0.25-0.3). The culture was split into two and challenged with 38 μM Fluometacyl (=18.2 μg/ml) or DMSO (Ctrl). Bacterial growth was measured after different time intervals by counting the colony-forming units after plating appropriate culture dilutions on BHI agar plates. (N=2)

[2] = tested on: Escherichia coli (ATCC 8739); assay: MIC determination with or without polymyxin B nonapeptide (PMBN); type: cell-based; conditions: PMBN alone up to 40 μg/ml
Method: Determination of Minimal Inhibitory Concentration (MIC) and Minimal Bactericidal Concentration (MBC) of Triafluocyl (Cayman Chemical, Item No. 15425) in presence of polymyxin B nonapeptide (PMBN) (Sigma-Aldrich Merk, Item No. P2076) against Escherichia coli (ATCC 8739). […] A single colony grown on a Luria-Bertani Agar (LB) plate was resuspended and cultured in LB medium overnight (O/N) in aerobic conditions (37° C. with 220 rpm shaking), next day a 1:50 inoculum in Mueller-Hinton broth (MHB) is incubated in aerobic conditions for 1 h30 (OD=0.08-0.1) and an inoculum corresponding to 3×10^6 colony forming unit (CFU)/ml, is incubated in presence or absence of different concentrations of Triafluocyl in 1% DMSO with or without 40 μg/ml Polymyxin B nonapeptide (PMBN) for 18 hr in aerobic conditions (37° C. with 220 rpm shaking). Growth of Escherichia coli in 7 conditions depicted in FIG. 11 is evaluated by reading the OD of each culture at 600 nm (OD600) in a spectrophotometer (Victor 3-Perkin Elmer). Determination of Minimal Inhibitory Concentration (MIC) and Minimal Bactericidal Concentration (MBC) of Fluometacyl in presence of polymyxin B nonapeptide (PMBN) (Sigma-Aldrich Merk, Item No. P2076) against Escherichia coli (ATCC 8739). The Minimal Inhibitory Concentration (MIC) represents the concentration, in a liquid culture, at which there is no visible growth of bacteria (no pellet or cloudiness), i.e. ΔOD at 600 nm equal to zero wherein ΔOD is the difference between the resulting optical density (OD) with the molecule together with PMBN, and the optical density (OD) of the blank (blank is the medium alone). A single colony grown on a Luria-Bertani Agar (LB) plate is resuspended and cultured in LB medium overnight (O/N) in aerobic conditions (37° C. with 220 rpm shaking), next day a 1:50 inoculum in Mueller-Hinton broth (MHB) is incubated in aerobic conditions for 1 h30 (OD=0.08-0.1) and an inoculum corresponding to 3×10^6 colony forming unit (CFU)/ml is incubated in presence or absence of different concentrations of Fluometacyl in 1% DMSO (vehicle) with or without 40 μg/ml Polymyxin B nonapeptide (PMBN) for 18 hr in aerobic conditions (37° C. with 220 rpm shaking). Growth of bacteria in the 7 individual cultures (FIG. 12A) is evaluated by reading the OD of each culture at 600 nm (OD600) in a spectrophotometer (Victor 3-Perkin Elmer).

Row | Molecule | effect on S. aureus MRSA viable count after the first two hours ([1]; Vancomycin 10-fold MIC, Minocycline 8-fold MIC, FIG. 8A) | bactericidal effect over the 24 h-experiment compared with Triafluocyl ([1]; Vancomycin 4 or 10 μg/ml, Minocycline 8 μg/ml) | inhibition of E. coli growth [2]
1 | CN[C@H](CC(C)C)C(=O)N[C@H]1C(=O)N[C@@H](CC(N)=O)C(=O)N[C@H]2C(=O)N[C@H]3C(=O)N[C@H](C(=O)N[C@H](C(=O)O)c4cc(O)cc(O)c4-c4cc3ccc4O)[C@H](O)c3ccc(c(Cl)c3)Oc3cc2cc(c3O[C@@H]2O[C@H](CO)[C@@H](O)[C@H](O)[C@H]2O[C@H]2C[C@](C)(N)[C@H](O)[C@H](C)O2)Oc2ccc(cc2Cl)[C@H]1O [Vancomycin, reference compound] | ineffective | less efficient | –
2 | polymyxin B nonapeptide [PMBN, reference compound] | – | – | unable to inhibit E. coli growth

Reference: patent US10905691B2, “Use of triazolo(4,5-d)pyrimidine derivatives for prevention and treatment of bacterial infection” (Universite de Liege, priority 2016, dated 2021)
